Experimental data taken from patent US20230148599A1, “FUNGICIDAL MIXTURES CONTAINING PYRAZOLE DERIVATIVES” (FMC Corporation, priority 2020, published 2023).

Key:
Assay type in all cases: in vivo
Details in all cases: 50 ppm, 100 = 100% disease control, 0 = no control
Septoria tritici = experiment: Test A: wheat leaf blotch, preventive spray on wheat seedlings
In short: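 Preventive test: one day after spraying seedlings to run-off (concentrations in ppm; acetone/water, 250 ppm PEG400), Septoria tritici spores applied. Scored after 48 h humid incubation at 24 °C plus 17 days at 20 °C, as percent disease control versus untreated controls (100 = full control).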

[1] = tested on: Puccinia recondita f. sp. tritici; experiment: Test B: wheat leaf rust, preventive spray on wheat seedlings
In short: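 Preventive test: compound in acetone/water 50/50 with 250 ppm PEG400 was sprayed onto wheat seedlings one day before inoculation with leaf rust spores. After 24 h in saturated air and 7 days in a growth chamber, both at 20 °C, disease control was scored from 0 to 100 against controls.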

[2] = tested on: Blumeria graminis f. sp. tritici; experiment: Test C: wheat powdery mildew, preventive spray on wheat seedlings
In short: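 Preventive test: inoculation with spore dust came one day after spraying seedlings to run-off with ppm suspensions in acetone/water (50/50) plus 250 ppm PEG400 surfactant. Visual ratings after 8 days' incubation at 20° C give percent disease control relative to controls.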

Phakopsora pachyrhizi = experiment: Test D: Asian soybean rust, preventive spray on soybean seedlings
In short: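 Compounds in acetone/water (50/50) with 250 ppm PEG400, dosed in ppm, sprayed to run-off on soybean seedlings; inoculated with P. pachyrhizi spores next day. Held 24 h at 22 °C in saturated air, then 8 days at 22 °C; visual rating of disease control, 0–100, relative to untreated controls.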

Botrytis cinerea = experiment: Test E: tomato Botrytis, preventive spray on tomato seedlings
In short: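 Preventive test: seedlings sprayed to run-off with compound in acetone/water (50/50) plus 250 ppm PEG400, inoculated one day later with B. cinerea spores. Held 48 h saturated at 20° C, then 3 days at 24° C; disease control scored visually from 0 to 100 versus controls.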

Alternaria solani = experiment: Test F: tomato early blight, preventive spray on tomato seedlings
In short: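 Preventive test: one day after the compound spray, seedlings were inoculated with A. solani, incubated saturated at 27 °C for 48 h, then kept at 20 °C for 3 days. Test suspensions contained acetone/water 50/50 with 250 ppm PEG400 surfactant. Visual ratings run from 0 (no control) to 100 (full control).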

SMILES | Test A disease control rating (Septoria tritici) | Test B disease control rating [1] | Test C disease control rating [2] | Test D disease control rating (Phakopsora pachyrhizi) | Test E disease control rating (Botrytis cinerea) | Test F disease control rating (Alternaria solani)
Cc1nn(C)c(Nc2ccc(OC(F)(F)F)cc2[N+](=O)[O-])c1-c1ccc(F)cc1Cl [compound 94] | 73% | 0% | 72% | 73% | 0% | 9%
Cc1nn(C)c(Nc2c(F)cc(Cl)cc2[N+](=O)[O-])c1-c1ccc(F)cc1F [compound 102] | 100% | 100% | 100% | 48% | 99% | 99%
Cc1nn(C)c(Nc2c(Cl)cccc2[N+](=O)[O-])c1-c1c(F)cc(F)cc1Br [compound 163] | 99% | 100% | 98% | 78% | 88% | 76%
Cc1nn(C)c(Nc2ccccc2[N+](=O)[O-])c1-c1c(F)cc(F)cc1Br [compound 154] | 99% | 80% | 98% | 0% | 99% | 51%
COc1cc(F)c(-c2c(C)nn(C)c2Nc2ccccc2[N+](=O)[O-])c(F)c1 [compound 147] | 96% | 86% | 97% | 0% | 100% | 99%
Cc1cccc([N+](=O)[O-])c1Nc1c(-c2ccc(F)cc2Br)c(C)nn1C [compound 42] | 100% | 100% | 96% | 0% | 91% | 0%
Cc1nn(C)c(Nc2c(Cl)cccc2[N+](=O)[O-])c1-c1c(F)cc(F)cc1Cl [compound 152] | 99% | 100% | 98% | 91% | 99% | 92%
CCc1nn(C)c(Nc2c(F)cc(F)cc2[N+](=O)[O-])c1-c1ccc(F)cc1F [compound 50] | 100% | 98% | 100% | 0% | 92% | 98%
COc1cc(F)c(Nc2c(-c3c(F)cccc3F)c(C)nn2C)c([N+](=O)[O-])c1 [compound 97] | 100% | 100% | 100% | 96% | 100% | 99%
COc1ccc(-c2c(C)nn(C)c2Nc2ccc(Cl)cc2[N+](=O)[O-])c(Cl)c1 [compound 74] | 99% | 86% | 81% | 74% | 99% | 85%
COc1ccc(Nc2c(-c3ccc(F)cc3Cl)c(C)nn2C)c([N+](=O)[O-])c1 [compound 119] | 100% | 100% | 99% | 92% | 100% | 99%
Cc1nn(C)c(Nc2ccc(OCC#N)cc2[N+](=O)[O-])c1-c1ccc(F)cc1Cl [compound 29] | 97% | 98% | 87% | 81% | 99% | 26%
Cc1nn(C)c(Nc2c(F)cc(Cl)cc2[N+](=O)[O-])c1-c1ccc(Cl)cc1Cl [compound 11] | 100% | 98% | 97% | 0% | 98% | 99%
Cc1nn(C)c(Nc2c(F)cc(F)cc2[N+](=O)[O-])c1-c1ccc(Cl)cc1F [compound 13] | 100% | 99% | 97% | 19% | 68% | 89%
Cc1cccc([N+](=O)[O-])c1Nc1c(-c2ccc(C#N)cc2Cl)c(C)nn1C [compound 157] | 100% | 97% | 76% | 0% | 9% | 0%
Cc1nn(C)c(Nc2ccc(F)cc2[N+](=O)[O-])c1-c1ccc(F)cc1Br [compound 20] | 100% | 89% | 92% | 0% | 99% | 26%
Cc1nn(C)c(Nc2ccccc2[N+](=O)[O-])c1-c1c(F)cc(Cl)cc1F [compound 168] | 100% | 74% | 97% | 0% | 99% | 40%
Cc1nn(C)c(Nc2c(F)cc(Br)cc2[N+](=O)[O-])c1-c1ccc(Cl)cc1Cl [compound 132] | 100% | 98% | 47% | 0% | 99% | 96%
Cc1nn(C)c(Nc2c(F)cc(Br)cc2[N+](=O)[O-])c1-c1ccc(F)cc1F [compound 56] | 100% | 100% | 100% | 65% | 99% | 99%
COc1ccc(Nc2c(-c3ccc(Cl)cc3Cl)c(C)nn2C)c([N+](=O)[O-])c1 [compound 142] | 100% | 91% | 39% | 25% | 99% | 80%
Cc1cc(F)c(Nc2c(-c3c(F)cc(F)cc3Cl)c(C)nn2C)c([N+](=O)[O-])c1 [compound 193] | 100% | 100% | 100% | 99% | 99% | 100%
